Where two headings read alike, the source gives them in different places. Bounds are passed on as bounds.

Assay [1] addresses T1, Sigma receptor (Cavia porcellus, UniProt Q60492).
T1 construct: Brain membranes were prepared by the method of Tam; from tissue; host or cells: guinea pig whole brain membranes
In words: Sigma Receptor Binding Assay. The class given is guinea pig (male Hartley), brain membranes.
Protocol: Male Hartley guinea pigs (250-300 g, Charles River) were sacrificed by decapitation. […] Whole brains were homogenized (20 sec.) in 10 vol (wt/vol) of ice-cold 0.34 M sucrose with a Brinkmann Polytron (setting 8). The homogenate was centrifuged at 920×g for 10 min. The supernatant was centrifuged at 47,000×g for 20 min. The resulting membrane pellet was resuspended in 10 vol (original wt/vol) of 50 mM Tris HCl (pH 7.4) and incubated at 37° C. for 45 min to degrade and dissociate bound endogenous ligands. The membranes were then centrifuged at 47,000×g for 20 min and resuspended in 50 mM Tris HCl (50 mL per brain).
After 45 rain of incubation at room temperature, samples were filtered rapidly through Whatman GF/C glass filters under negative pressure, and washed 3 times with ice-cold Tris buffer (5 mL).
IC50 s were calculated from log-logit plots. Apparent Ki s were calculated from the equation, Ki =IC50 /[1+(L/Kd)], where L is the concentration of radioligand and Kd is its dissociation constant.

Assay [2] has as its target T2, Dopamine (D-2) receptor (Cavia porcellus, UniProt H0VE83).
T2 construct: Membranes were prepared from guinea pig striatum; from tissue; host or cells: guinea pig striatum membranes
Nature of the assay: Dopamine Receptor Binding. The class given is guinea pig, striatum membranes. The conditions noted are these: 0.15 nM [3H]spiperone, guinea pig striatum, pH 7.7, 15 min 37° C.; read-out: Receptor Binding Affinity Dopamine (D-2) (Ki class).
Protocol: Membranes were prepared from guinea pig striatum by the method described for sigma receptor binding. The membranes were then resuspended in 50 mM Tris HCl (9 mL per brain).
Nonspecific binding was measured in the presence of 100 nM (+)-butaclamol After 15 min of incubation at 37° C. samples were filtered rapidly through Whatman GF/C glass filters under negative pressure, and washed three times with ice-cold binding buffer (5 mL).

Assay [3] relates to isolation-induced aggression in mice. Nature of the assay: Isolation-Induced Aggression in Mice. The conditions noted are these: for ED50: Mus musculus, po, 0.25 h, mice, p.o., 15 min after dosing, read-out: Inhibition of Isolation-induced Aggression (ED50 class); for inhibiting the isolation-induced aggressive behavior: statement on Table II. The class given is in vivo, mouse (male Balb/c).
Protocol: Male Balb/c mice (Charles River) were used. […] Isolated mice failing to consistently attack an intruder were eliminated from the colony.
Drug testing was carried out by treating the isolated mice with test drugs or standards. Fifteen min after dosing with drugs by the oral route (p.o.), one isolated mouse was removed from its home cage and placed in the home cage of another isolate. Scoring was a yes or no response for each pair. A maximum of 3 min was allowed for an attack and the pair was separated immediately upon an attack. Selection of home cage and intruder mice was randomized for each test. Mice were treated and tested twice a week with at least a 2 day washout period between treatments.

Where [4] appears, read: 1 nM (+)-[3H]SKF 10,047, guinea pig brain membranes, pH 7.4, 45 min room temperature, read-out: Receptor Binding Affinity Sigma (Ki class).

T2 sequence (H0VE83 1-446): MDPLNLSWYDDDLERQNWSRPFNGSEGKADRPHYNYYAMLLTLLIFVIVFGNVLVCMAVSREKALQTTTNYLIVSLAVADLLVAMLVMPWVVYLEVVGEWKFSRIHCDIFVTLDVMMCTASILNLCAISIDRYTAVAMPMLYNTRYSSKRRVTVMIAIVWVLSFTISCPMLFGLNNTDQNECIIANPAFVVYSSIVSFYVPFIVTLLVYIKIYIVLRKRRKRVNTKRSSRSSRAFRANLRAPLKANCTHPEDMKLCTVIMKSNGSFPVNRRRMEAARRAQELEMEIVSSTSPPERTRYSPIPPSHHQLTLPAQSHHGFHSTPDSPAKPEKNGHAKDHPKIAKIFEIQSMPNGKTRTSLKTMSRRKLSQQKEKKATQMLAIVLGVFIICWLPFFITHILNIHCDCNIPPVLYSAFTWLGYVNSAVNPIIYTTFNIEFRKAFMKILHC
T1 sequence (Q60492 whole entry): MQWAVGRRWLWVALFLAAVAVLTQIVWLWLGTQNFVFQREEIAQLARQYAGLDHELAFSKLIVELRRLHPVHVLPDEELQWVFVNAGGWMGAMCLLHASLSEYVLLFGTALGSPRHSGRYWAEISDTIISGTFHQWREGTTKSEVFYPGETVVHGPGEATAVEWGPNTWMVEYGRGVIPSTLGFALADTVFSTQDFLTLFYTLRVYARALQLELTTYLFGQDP

A word on the Ki: it is a measure of affinity in units of concentration, obtained from inhibition or displacement. Broadly, the ED50 is the dose that gives a 50% effect, or the effect in half of the subjects. On to `O=C1c2ccccc2C(=O)N1CCC1CCN(CCc2ccccc2)CC1` [Example 39], for which the figures for the Ki in assay [1] (setting [4]) and in assay [2] were 1 to 30 nM and over 500 nM, respectively. Moreover, the median effective dose (ED50) in assay [3] fell in the range of 21 to 70 mg/kg.

Regarding `CC1CC[C@@H]2C(=O)N(CC3CCN(CCc4ccccc4)CC3)C(=O)[C@@H]2C1` (stereo partly drawn) [Example 23], the inhibitory constant (Ki) in assay [1] (setting [4]) is 1 to 30 nM; in assay [2] it was over 500 nM. Besides, the 50% effective dose (ED50) in assay [3] was in the range of 21 to 70 mg/kg.

In the case of `O=C1[C@H]2CCCC[C@H]2C(=O)N1CC1CCN(CC2CCCCC2)CC1` [Example 15], the results for the Ki in assay [1] (setting [4]) and in assay [2] were 1 to 30 nM and over 500 nM, respectively. Moreover, the “inhibiting the isolation-induced aggressive behavior” value in assay [3] is listed as “potent activities”.

As for `O=C1[C@H]2CCCC[C@H]2C(=O)N1CC1CCN(CCC2CCCCC2)CC1` [Example 17], the Ki in assay [1] (setting [4]) was 1 to 30 nM; in assay [2], over 500 nM. In assay [3], the “inhibiting the isolation-induced aggressive behavior” value was “potent activities”.

With `O=C1C2=C(CCCC2)CN1CC1CCN(CCc2ccccc2)CC1` [Example 6, 2,3,4,5,6,7-hexahydro-2-[[1-(2-phenylethyl)-4-piperidinyl]methyl]-1H-isoindol-1-one], in assay [1] (setting [4]), the Ki was 31 to 100 nM. Also, the Ki in assay [2] was over 500 nM. Further, in assay [3], the ED50 lay in the range of 21 to 70 mg/kg and the “inhibiting the isolation-induced aggressive behavior” value is given as “potent activities”.

For the molecule `O=C1c2ccccc2C(=O)N1CCCC1=CCN(CCc2ccccc2)CC1` [Example 116], the inhibition constant (Ki) in assay [1] (setting [4]) is 31 to 100 nM; in assay [2], over 500 nM.

As to `O=C1c2ccccc2C(=O)N1CCCC1CCCN(Cc2ccccc2)C1` (stereo not drawn) [Example 4, 2-[3-[1-(phenylmethyl)-3-piperidinyl]propyl]-1H-isoindole-1,3(2H)-dione], the Ki is 1 to 30 nM in assay [1] (setting [4]) and over 500 nM in assay [2].

In the case of `CC1(CN2C(=O)[C@H]3CCCC[C@H]3C2=O)CCN(CCc2ccccc2)CC1` [Example 132, 2-[1-(2-Phenylethyl)-4-(4-methyl)piperidinylmethyl]-cis-3a, 4,5,6,7,7a-hexahydro-1H-isoindole-1,3(2H)-dione], the inhibition constant (Ki) was 1 to 30 nM in assay [1] (setting [4]) and over 500 nM in assay [2].

Turning to `O=C1[C@H]2CCCC[C@H]2C(=O)N1CC1(c2ccsc2)CCN(CCc2ccccc2)CC1` [Example 128], the inhibition constant Ki is 1 to 30 nM in assay [1] and over 500 nM in assay [2].

With `O=C1c2ccccc2C(=O)N1CCCC1CCN(CCc2ccccc2)CC1` [Example 44], the Ki was 1 to 30 nM in assay [1] (setting [4]) and over 500 nM in assay [2].

As for `O=C1c2ccccc2C(=O)N1CC1CCN(Cc2ccccc2)CC1` [Example 34], the Ki in assay [1] (setting [4]) was 1 to 30 nM; in assay [2], over 500 nM. The ED50 in assay [3] lay in the range of 11 to 20 mg/kg.

Consider `O=C1[C@H]2CCCC[C@H]2C(=O)N1CC1CCN(CCc2ccc(O)cc2)CC1` [Example 19], for which the Ki in assay [1] (setting [4]) and in assay [2] was 101 to 500 nM throughout.

With `O=C1C2C3C=CC(C3)C2C(=O)N1CC1CCN(CCc2ccccc2)CC1` (stereo not drawn) [Example 55], the inhibition constant Ki in assay [1] (setting [4]) was 31 to 100 nM; in assay [2] it was over 500 nM.

As to `O=C1c2ccccc2C(=O)N1CCC1CCN(CC2CC2)CC1` [Example 42], the inhibition constant Ki in assay [1] (setting [4]) is 1 to 30 nM; in assay [2], over 500 nM.

Take `CC1C2=C(CCCC2)C(=O)N1CC1CCN(CCc2ccccc2)CC1` (stereo not drawn) [Example 70, 2,3,4,5,6,7, -hexahydro-2-[[1-(2-phenylethyl)-4-piperidinyl]methyl]-3-methyl-1H-isoindol-1-one]: the Ki in assay [1] (setting [4]) and in assay [2] was 101 to 500 nM in each case.

Consider `CC12CCCCC1C(=O)N(CC1CCN(CCc3ccccc3)CC1)C2=O` (stereo not drawn) [Example 64], for which the inhibitory constant (Ki) in assay [1] (setting [4]) was 31 to 100 nM; in assay [2], over 500 nM.

For `O=C1[C@H]2CCCC[C@H]2C(=O)N1CC1=CCN(CCc2ccccc2)CC1` [Example 119], the inhibition constant Ki was 1 to 30 nM in assay [1] (setting [4]) and over 500 nM in assay [2].

With `O=C1C2C3C=CC(CCC3)C2C(=O)N1CC1(O)CCN(CCc2ccccc2)CC1` (stereo not drawn) [Example 75], the Ki in assay [1] (setting [4]) was 1 to 30 nM; in assay [2], over 500 nM.

In the case of `O=C1[C@H]2CCCC[C@H]2C(=O)N1CC1(c2csc3ccccc23)CCN(CCc2ccccc2)CC1` [Example 129], the inhibitory constant (Ki) in assay [1] fell in the range of 1 to 30 nM; in assay [2] it was 101 to 500 nM.

For the molecule `CC12CCCCC1(C)C(=O)N(CC1CCN(CCc3ccccc3)CC1)C2=O` (stereo not drawn) [Example 65], the Ki was in the range of 31 to 100 nM in assay [1] (setting [4]) and 101 to 500 nM in assay [2].

On to `O=C1[C@H]2CCCC[C@H]2C(=O)N1CC1CCN(CCc2ccc(C(F)(F)F)cc2)CC1` [Example 31], for which the results for the Ki in assay [1] (setting [4]) and in assay [2] were 101 to 500 nM and over 500 nM, respectively.

On to `O=C1c2ccccc2C(=O)N1CC1CCCN(Cc2ccccc2)C1` (stereo not drawn) [Example 47], for which the figures for the Ki in assay [1] (setting [4]) and in assay [2] were 1 to 30 nM and over 500 nM, respectively.

As for `O=C1c2ccccc2C(=O)N1CC1(c2cccc(Cl)c2)CCN(CCc2ccccc2)CC1` [Example 130], the values for the Ki in assay [1] and in assay [2] were 1 to 30 nM and over 500 nM, respectively.

With `CC1(O)C2CCCCC2C(=O)N1CC1CCN(CCc2ccccc2)CC1` (stereo not drawn) [Example 8, cis-Octahydro-3-hydroxy-3-methyl-2-[[1-(2-phenylethyl)4-piperidinyl]methyl]-1H-isoindol-1-one], the values for the Ki in assay [1] (setting [4]) and in assay [2] were 101 to 500 nM and over 500 nM, respectively.

With `O=C1C2C3C=CC(CCC3)C2C(=O)N1CC1CCN(CCc2ccccc2)CC1` (stereo not drawn) [Example 62], the inhibition constant (Ki) in assay [1] (setting [4]) is 1 to 30 nM; in assay [2] it was over 500 nM.

Consider `O=C1c2ccccc2C(=O)N1CC1CCN(CC2CC2)CC1` [Example 37], for which the Ki in assay [1] (setting [4]) is 101 to 500 nM; in assay [2], over 500 nM.

Take `O=C1C2C3C=CC(C4CCC34)C2C(=O)N1CC1(O)CCN(CCc2ccccc2)CC1` (stereo not drawn) [Example 77]: the Ki in assay [1] (setting [4]) is 31 to 100 nM; in assay [2] it was over 500 nM.

Take `O=C1C2=C(CCCC2)C(=O)N1CC1CCN(CCc2ccccc2)CC1` [Example 56]: the Ki in assay [1] (setting [4]) is 1 to 30 nM; in assay [2] it was over 500 nM.

As to `O=C1C2C(c3ccccc3)CCC(c3ccccc3)C2C(=O)N1CC1CCN(CCc2ccccc2)CC1` (stereo not drawn) [Example 68], the inhibition constant Ki was 101 to 500 nM in assay [1] (setting [4]) and over 500 nM in assay [2].

Regarding `O=C1[C@H]2CCCC[C@H]2C(=O)N1C1CCN(Cc2ccccc2)CC1` [Example 12], the values for the Ki in assay [1] (setting [4]) and in assay [2] were 1 to 30 nM and over 500 nM, respectively.

Turning to `O=C1C2C3CC(c4ccccc43)C2C(=O)N1CC1CCN(CCc2ccccc2)CC1` (stereo not drawn) [Example 57], the Ki in assay [1] (setting [4]) is 1 to 30 nM; in assay [2], over 500 nM.

Regarding `O=C1[C@H]2CCCC[C@H]2C(=O)N1CC1(O)CCN(CCc2ccccc2)CC1` [Example 74], the inhibition constant Ki is 101 to 500 nM in assay [1] (setting [4]) and over 500 nM in assay [2].

For the molecule `O=C1C2C3CCCC(CC3)C2C(O)N1CC1CCN(CCc2ccccc2)CC1` (stereo not drawn) [Example 73], the Ki in assay [1] (setting [4]) is 31 to 100 nM; in assay [2] it was over 500 nM.

For `CN(C)c1ccc(CCN2CCC(CN3C(=O)[C@H]4CCCC[C@H]4C3=O)CC2)cc1` [Example 28], the figures for the Ki in assay [1] (setting [4]) and in assay [2] were 1 to 30 nM and over 500 nM, respectively.

These data come from US5480892A, “(N-phthalimidoalkyl)piperidines” (The Du Pont Merck Pharmaceutical Company, priority 1994, dated 1996).
